ChEMBL document CHEMBL1136059 (Bioorg Med Chem Lett, 2002)
pIC50: −log10 of the molar value.

Key:
[1] = target: T1, Prostaglandin G/H synthase 2 (Homo sapiens, UniProt P35354); format: functional
T1 sequence (P35354 whole entry): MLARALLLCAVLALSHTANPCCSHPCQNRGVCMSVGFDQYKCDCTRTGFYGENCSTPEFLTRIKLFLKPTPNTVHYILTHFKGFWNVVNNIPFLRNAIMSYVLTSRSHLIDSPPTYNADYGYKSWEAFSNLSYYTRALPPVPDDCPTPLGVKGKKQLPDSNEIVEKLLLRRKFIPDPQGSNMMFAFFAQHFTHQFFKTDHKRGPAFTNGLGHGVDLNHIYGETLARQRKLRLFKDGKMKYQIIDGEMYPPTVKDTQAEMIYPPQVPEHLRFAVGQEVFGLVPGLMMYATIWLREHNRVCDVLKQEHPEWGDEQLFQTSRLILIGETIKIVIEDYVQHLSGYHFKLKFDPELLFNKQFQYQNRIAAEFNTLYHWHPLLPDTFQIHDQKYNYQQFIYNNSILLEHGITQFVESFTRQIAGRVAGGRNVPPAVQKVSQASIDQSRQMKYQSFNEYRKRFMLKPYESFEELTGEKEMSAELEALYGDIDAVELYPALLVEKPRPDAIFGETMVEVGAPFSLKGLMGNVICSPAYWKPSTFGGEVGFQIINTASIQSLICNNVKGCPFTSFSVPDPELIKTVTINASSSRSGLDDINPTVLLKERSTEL

[2] = target: T2, Prostaglandin G/H synthase 1 (Homo sapiens, UniProt P23219); assay: Tested in vitro for inhibition of cyclooxygenase-1 in human blood assay; format: functional
[3] = target: T2, Prostaglandin G/H synthase 1; format: functional
[4] = target: T1, Prostaglandin G/H synthase 2; assay: Tested in vitro for inhibition of cyclooxygenase-2 in human blood assay; format: functional
[5] = target: T3, Prostaglandin G/H synthase 2 (Homo sapiens) (UniProt P35354); assay: In vitro inhibition of cyclooxygenase-2 via inhibition of PGE-2 generation by LPS-stimulated monocytes isolated from human blood at a concentration of 20 uM; format: functional
T3 sequence (whole entry): T1 sequence (P35354 whole entry)

[6] = target: T2, Prostaglandin G/H synthase 1; assay: In vitro inhibition of cyclooxygenase-1 via inhibition of TXB2 generation in the presence of 1 uM arachidonic acid in human platelets at concentration of 10 uM; format: functional
[7] = target: T3, Prostaglandin G/H synthase 2 (Homo sapiens); assay: In vitro inhibition of cyclooxygenase-2 via inhibition of PGE-2 generation by LPS-stimulated monocytes isolated from human blood at concentration of 20 uM; format: functional
[8] = target: T2, Prostaglandin G/H synthase 1; assay: In vitro inhibition of cyclooxygenase-1 via inhibition of TXB2 generation in the presence of 1 uM arachidonic acid in human platelet; format: functional
[9] = target: T2, Prostaglandin G/H synthase 1; assay: In vitro inhibition of cyclooxygenase-1 via inhibition of TXB2 generation in the presence of 1 uM arachidonic acid in human platelets; format: functional
[10] = target: T2, Prostaglandin G/H synthase 1; assay: In vitro inhibition of cyclooxygenase-1 via inhibition of TXB2 generation in the presence of 1 uM arachidonic acid in human platelets
[11] = target: T3, Prostaglandin G/H synthase 2 (Homo sapiens); assay: In vitro inhibition of cyclooxygenase-2 via inhibition of PGE-2 generation by LPS-stimulated monocytes isolated from human blood; format: functional
[12] = target: T1, Prostaglandin G/H synthase 2; assay: In vitro inhibition of cyclooxygenase-2 via inhibition of PGE-2 generation by LPS-stimulated monocytes isolated from human blood; inactive; format: functional

T2 sequence (P23219 whole entry): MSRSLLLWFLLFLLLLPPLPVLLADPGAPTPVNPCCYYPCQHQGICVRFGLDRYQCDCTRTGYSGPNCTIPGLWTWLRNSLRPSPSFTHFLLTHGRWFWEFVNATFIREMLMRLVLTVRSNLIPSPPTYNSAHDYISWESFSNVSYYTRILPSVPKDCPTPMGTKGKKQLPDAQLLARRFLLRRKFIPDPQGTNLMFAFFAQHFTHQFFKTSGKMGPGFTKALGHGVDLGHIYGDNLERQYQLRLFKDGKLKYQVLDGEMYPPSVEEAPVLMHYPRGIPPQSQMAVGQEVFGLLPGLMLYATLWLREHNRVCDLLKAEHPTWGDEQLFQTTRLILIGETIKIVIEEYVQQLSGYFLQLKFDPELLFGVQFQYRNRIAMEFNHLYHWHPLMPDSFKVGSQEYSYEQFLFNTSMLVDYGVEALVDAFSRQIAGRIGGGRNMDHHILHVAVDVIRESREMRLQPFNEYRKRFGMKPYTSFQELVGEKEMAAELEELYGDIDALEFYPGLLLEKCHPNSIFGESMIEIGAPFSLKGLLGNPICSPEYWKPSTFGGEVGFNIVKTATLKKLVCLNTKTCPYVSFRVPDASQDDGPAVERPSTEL

With `CCc1cc(/C=C/S(N)(=O)=O)cc(C(=O)c2ccccc2)c1` the pIC50 [1] was 6.70, the pIC50 [2] was 4.00 and the pIC50 [3] was 4.74. For the same compound, the pIC50 [4] was 4.92.

Work on `NS(=O)(=O)/C=C/c1cccc(C(=O)c2ccccc2)c1` yielded an inhibition [5] of 37% and an inhibition [6] of 0%.

`Cc1cc(C(=O)c2ccccc2)ccc1/C=C/S(N)(=O)=O` showed an inhibition [7] of 14% and an inhibition [6] of 0%.

`CCOC(=O)/C=C/c1cc(CC)cc(C(=O)c2ccccc2)c1` gave a pIC50 [1] of 5.30.

For `NS(=O)(=O)/C=C/c1cc(CO)cc(C(=O)c2ccccc2)c1`, the pIC50 [3] was 5.27.

`CCc1cc(/C=C/C(N)=O)cc(C(=O)c2ccccc2)c1` was tested, and the pIC50 [1] was 5.74 and the pIC50 [8] was 7.13.

`CCc1cc(/C=C/S(C)(=O)=O)cc(C(=O)c2ccccc2)c1` was tested, and the inhibition [5] was 40% and the inhibition [6] was 16%.

For `CC(C(=O)O)c1cc(/C=C/S(C)(=O)=O)cc(C(=O)c2ccccc2)c1` (stereo not given), the pIC50 [1] was 5.01.

`Cc1ccc(/C=C/S(N)(=O)=O)cc1C(=O)c1ccccc1` was tested, and the inhibition [9] was 49% and the pIC50 [1] was 4.72.

With `N#Cc1cc(/C=C/S(N)(=O)=O)cc(C(=O)c2ccccc2)c1` the pIC50 [1] was 5.25 and the pIC50 [3] was 5.77.

`NS(=O)(=O)/C=C/c1ccc(C(=O)c2ccccc2)cc1CO` gave a pIC50 [1] of 5.08 and an inhibition [6] of 25%.

`CC(=O)c1cc(/C=C/S(N)(=O)=O)cc(C(=O)c2ccccc2)c1` gave a pIC50 [1] of 4.70 and a pIC50 [3] of 5.19.

For `CS(=O)(=O)/C=C/c1ccc(C(=O)c2ccccc2)cc1`, the inhibition [7] was 6% and the inhibition [6] was 14%.

With `CCN(CC)Cc1cc(/C=C/S(N)(=O)=O)cc(C(=O)c2ccccc2)c1` the pIC50 [1] was 5.15.

With `CN(C)C(=O)c1cc(/C=C/S(N)(=O)=O)cc(C(=O)c2ccccc2)c1` the inhibition [5] was 31%.

Work on `NS(=O)(=O)/C=C/c1ccccc1C(=O)c1ccccc1` yielded an inhibition [7] of 43% and an inhibition [6] of 39%.

In the case of `CCc1cc(C(=O)c2ccccc2)ccc1/C=C/S(N)(=O)=O`, the pIC50 [1] was 5.25 and the pIC50 [10] was 5.20.

For `CCc1ccc(/C=C/S(N)(=O)=O)cc1C(=O)c1ccccc1`, the pIC50 [1] was 6.11 and the pIC50 [3] was 6.70.

`CS(=O)(=O)c1ccc(C2=C(c3ccccc3)C(=O)OC2)cc1` was tested, and the inhibition [6] was 0%.

`Cc1cc(/C=C/S(N)(=O)=O)ccc1C(=O)c1ccccc1` was tested, and the inhibition [11] was 41% and the inhibition [6] was 0%.

For `CC(C)=Cc1cc(/C=C/S(N)(=O)=O)cc(C(=O)c2ccccc2)c1`, the pIC50 [1] was 6.01 and the pIC50 [3] was 5.44.

In the case of `CS(=O)(=O)/C=C/c1cccc(C(=O)c2ccccc2)c1`, the IC50 [12] was “Not Active”.

Work on `CCc1cc(/C=C/C(=O)O)cc(C(=O)c2ccccc2)c1` yielded a pIC50 [1] of 5.59.
